The experiment addresses T1, serotonin transporter (SERT) (Mus musculus, UniProt Q60857).
T1 construct: gene Slc6a4
The experiment is described as follows: fluoxetine-sensitive accumulation of fluorescent substrate ([…]) in HT22 cells. The experiment is classed as cell-based.

The structures appear in SMILES notation.

T1 sequence (Q60857 whole entry): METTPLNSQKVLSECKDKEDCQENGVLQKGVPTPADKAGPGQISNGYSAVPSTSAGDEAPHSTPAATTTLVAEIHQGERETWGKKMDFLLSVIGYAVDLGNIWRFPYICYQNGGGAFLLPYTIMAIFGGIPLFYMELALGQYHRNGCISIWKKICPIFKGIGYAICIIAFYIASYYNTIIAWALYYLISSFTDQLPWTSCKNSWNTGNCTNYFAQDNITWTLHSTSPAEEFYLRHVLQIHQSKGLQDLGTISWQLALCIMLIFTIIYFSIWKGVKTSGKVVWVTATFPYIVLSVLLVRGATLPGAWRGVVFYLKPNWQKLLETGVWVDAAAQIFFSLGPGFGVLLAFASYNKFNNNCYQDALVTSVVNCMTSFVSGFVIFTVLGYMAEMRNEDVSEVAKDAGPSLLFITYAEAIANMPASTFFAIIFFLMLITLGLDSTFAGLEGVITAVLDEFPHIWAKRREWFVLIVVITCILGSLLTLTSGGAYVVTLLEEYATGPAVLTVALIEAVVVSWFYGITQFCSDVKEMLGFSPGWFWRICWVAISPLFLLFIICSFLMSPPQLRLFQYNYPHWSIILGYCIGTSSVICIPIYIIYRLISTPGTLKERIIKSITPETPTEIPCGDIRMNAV

For the compound `CN(C)c1ccc(-c2cc[n+](C)cc2)cc1` [APP+, 4-(4-(dimethylamino)phenyl)-1-methylpyridinium iodide], the “fluoxetine-sensitive accumulation of fluorescent substrate (10 uM) in HT22 cells” value is reported as “A significant increase in APP^+ reuptake was detected in differentiated HT22 cells compared to undifferentiated cells”.

(Values after publication PMC9871236, “Differentiated HT22 cells as a novel model for in vitro screening of serotonin reuptake inhibitors” (Frontiers in Pharmacology, 2023).)
